According to patent US20220024906A1, “COMPOUNDS AND COMPOSITIONS FOR TREATING CONDITIONS ASSOCIATED WITH STING ACTIVITY” (IFM Due, Inc., priority 2020, published 2022):

Target: T1, hSTING (Homo sapiens, UniProt Q86WV6, G230A/H232R/R293Q/R71H)
T1 construct: host or cells: THP1-Dual KO-IFNAR2 cells
Experiment: STING reporter assay (luciferase) in THP1-Dual KO-IFNAR2 cells stimulated with 2′3′cGAMP
Format: cell-based
Conditions: 15 μM 2′3′cGAMP transfected, 24 h, luciferase reporter activity
Procedure: STING pathway activation by the compounds described herein was measured using THP1-Dual™ cells (KO-IFNAR2).
THP1-Dual™ KO-IFNAR2 Cells (obtained from invivogen) were maintained in RPMI, 10% FCS, 5 ml P/S, 2 mM L-glut, 10 mM Hepes, and 1 mM sodium pyruvate. Compounds were spotted in empty 384 well tissue culture plates (Greiner 781182) by Echo for a final concentration of 0.0017-100 μM. Cells were plated into the TC plates at 40 μL per well, 2×10E6 cells/mL. For activation with STING ligand, 2′3′cGAMP (MW 718.38, obtained from Invivogen), was prepared in Optimem media.
The following solutions were prepared for each 1×384 plate: • Solution A: 2 mL Optimem with one of the following stimuli: • 60 μL of 10 mM 2′3′cGAMP→150 μM stock • Solution B: 2 mL Optimem with 60 μL Lipofectamine 2000→Incubate 5 min at RT
2 mL of solution A and 2 ml Solution B was mixed and incubated for 20 min at room temperature (RT). 20 μL of transfection solution (A+B) was added on top of the plated cells, with a final 2′3′cGAMP concentration of 15 μM. The plates were then centrifuged immediately at 340 g for 1 minute, after which they were incubated at 37° C., 5% CO2, >98% humidity for 24 h. Luciferase reporter activity was then measured. EC50 values were calculated by using standard methods known in the art.
Luciferase reporter assay: 10 μL of supernatant from the assay was transferred to white 384-plate with flat bottom and squared wells. One pouch of QUANTI-Luc™ Plus was dissolved in 25 mL of water. 100 μL of QLC Stabilizer per 25 mL of QUANTI-Luc™ Plus solution was added. 50 μL of QUANTI-Luc™ Plus/QLC solution per well was then added. Luminescence was measured on a Platereader (e.g., Spectramax I3X (Molecular Devices GF3637001)).
Luciferase reporter activity was then measured. EC50 values were calculated by using standard methods known in the art.

T1 sequence (Q86WV6 whole entry R71H/G230A/H232R/R293Q): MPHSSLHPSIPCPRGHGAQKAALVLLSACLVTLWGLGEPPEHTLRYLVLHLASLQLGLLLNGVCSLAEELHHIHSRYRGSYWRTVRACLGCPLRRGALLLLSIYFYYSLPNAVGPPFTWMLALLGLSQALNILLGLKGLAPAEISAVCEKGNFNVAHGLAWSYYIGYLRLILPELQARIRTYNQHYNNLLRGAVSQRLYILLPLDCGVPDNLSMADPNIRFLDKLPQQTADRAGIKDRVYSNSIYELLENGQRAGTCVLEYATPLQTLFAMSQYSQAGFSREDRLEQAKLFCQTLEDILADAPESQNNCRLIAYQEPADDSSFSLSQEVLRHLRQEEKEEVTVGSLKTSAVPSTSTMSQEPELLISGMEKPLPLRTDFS

SMILES | EC50 [µM]
O=C(Nc1c[nH]c2cc(F)c(F)cc12)C1CC(Oc2ccccc2)C1 (stereo not shown) [Compound 114, N-(5,6-difluoro-1H-indol-3-yl)-3-phenoxycyclobutane-1-carboxamide] | 1 to 5
O=C(CCN1CCOC1=O)Nc1c[nH]c2ccc(-c3cnn(-c4ccc(C(F)(F)F)cc4)c3)cc12 [Compound 167, 3-(2-oxooxazolidin-3-yl)-N-(5-(1-(4-(trifluoromethyl)phenyl)-1H-pyrazol-4-yl)-1H-indol-3-yl)propanamide] | 0.2 to 1
O=C(CC1(O)CCC1)Nc1c[nH]c2ccc(-c3cnn(-c4ccc(C(F)(F)F)cc4)c3)cc12 [Compound 162, 2-(1-hydroxycyclobutyl)-N-(5-(1-(4-(trifluoromethyl)phenyl)-1H-pyrazol-4-yl)-1H-indol-3yl)acetamide] | 0.2 to 1
CC(Oc1ccc(C(F)(F)F)cc1)C(=O)Nc1c[nH]c2cc(F)c(F)cc12 (stereo not shown) [Compound 131, N-(5,6-difluoro-1H-indol-3-yl)-2-(4-(trifluoromethyl)phenoxy)propanamide] | 1 to 5
O=C(Cc1nnn[nH]1)Nc1c[nH]c2ccc(-c3cnn(-c4ccc(C(F)(F)F)cc4)c3)cc12 [Compound 141, 2-(1H-tetrazol-5-yl)-N-(5-(1-(4-(trifluoromethyl)phenyl)-1H-pyrazol-4-yl)-1H-indol-3-yl)acetamide] | 5 to 100
O=C(CCN1CCCC1=O)Nc1c[nH]c2ccc(-c3cnn(-c4ccc(C(F)(F)F)cc4)c3)cc12 [Compound 155, 3-(2-oxopyrrolidin-1-yl)-N-(5-(1-(4-(trifluoromethyl)phenyl)-1H-pyrazol-4-yl)-1H-indol-3-yl)propanamide] | 0.2 to 1
O=C(Cc1ncc(F)cn1)Nc1c[nH]c2ccc(-c3cnn(-c4ccc(C(F)(F)F)cc4)c3)cc12 [Compound 145, 2-(5-fluoropyrimidin-2-yl)-N-(5-(1-(4-(trifluoromethyl)phenyl)-1H-pyrazol-4-yl)-1H-indol-3-yl)acetamide] | 0.2 to 1
Cn1cnnc1CCC(=O)Nc1c[nH]c2ccc(-c3cnn(-c4ccc(C(F)(F)F)cc4)c3)cc12 [Compound 153, 3-(4-methyl-4H-1,2,4-triazol-3-yl)-N-(5-(1-(4-(trifluoromethyl)phenyl)-1H-pyrazol-4-yl)-1H-indol-3-yl)propanamide] | 1 to 5
O=C(CCc1cn[nH]c1)Nc1c[nH]c2ccc(-c3cnn(-c4ccc(C(F)(F)F)cc4)c3)cc12 [Compound 140, 3-(1H-pyrazol-4-yl)-N-(5-(1-(4-(trifluoromethyl)phenyl)-1H-pyrazo1-4-yl)-1H-indol-3-yl)propanamide] | 0.2 to 1
C[C@H](C(=O)Nc1c[nH]c2ccc(-c3cnn(-c4ccc(C(F)(F)F)cc4)c3)cc12)N1CCCC1=O [Compound 156, (R)-2-(2-oxopyrrolidin-1-yl)-N-(5-(1-(4-(trifluoromethyl)phenyl)-1H-pyrazol-4-yl)-1H-indol-3-yl)propanamide] | 1 to 5
Cc1nnc(CC(=O)Nc2c[nH]c3ccc(-c4cnn(-c5ccc(C(F)(F)F)cc5)c4)cc23)o1 [Compound 138, 2-(5-methyl-1,3,4-oxadiazol-2-yl)-N-(5-(1-(4-(trifluoromethyl)phenyl)-1H-pyrazol-4-yl)-1H-indol-3-yl)acetamide] | 0.2 to 1
O=C(Nc1c[nH]c2ccc(-c3cnn(-c4ccc(C(F)(F)F)cc4)c3)cc12)C(O)c1ccccc1 (stereo not shown) [Compound 154, 2-hydroxy-2-phenyl-N-(5-(1-(4-(trifluoromethyl)phenyl)-1H-pyrazol-4-yl)-1H-indol-3-yl)acetamide] | 1 to 5
O=C(Cc1ncc[nH]1)Nc1c[nH]c2ccc(-c3cnn(-c4ccc(C(F)(F)F)cc4)c3)cc12 [Compound 149, 2-(1H-imidazol-2-yl)-N-(5(1-(4-(trifluoromethyl)phenyl)-1H-pyrazol-4-yl)-1H-indol-3-yl)acetamide] | 5 to 100
O=C(CCc1nccs1)Nc1c[nH]c2ccc(-c3cnn(-c4ccc(C(F)(F)F)cc4)c3)cc12 [Compound 148, 3-(thiazol-2-yl)-N-(5-(1-(4-(trifluoromethyl)phenyl)-1H-pyrazol-4-yl)-1H-indol-3-yl)propanamide] | 0.2 to 1
Cc1nc(CC(=O)Nc2c[nH]c3ccc(-c4cnn(-c5ccc(C(F)(F)F)cc5)c4)cc23)cs1 [Compound 165, 2-(2-methylthiazol-4-yl)-N-(5-(1-(4-(trifluoromethyl)phenyl)-1H-pyrazol-4-yl)-1H-indol-3-yl)acetamide] | 0.2 to 1
O=C(/C=C/c1ccc(OC(F)(F)F)cc1)Nc1c[nH]c2cc(F)c(F)cc12 [Compound 136, (E)-N-(5,6-difluoro-1H-indol-3-yl)-3-(4-(trifluoromethoxy)phenyl)acrylamide] | 0.2 to 1
Cc1cc(CC(=O)Nc2c[nH]c3cc(F)c(F)cc23)cnc1N1CCC(F)(F)CC1 [Compound 126, N-(5,6-difluoro-1H-indol-3-yl)-2-(6-(4,4-difluoropiperidin-1-yl)-5-methylpyridin-3-yl)acetamide] | 1 to 5
O=C(CCc1cnoc1)Nc1c[nH]c2ccc(-c3cnn(-c4ccc(C(F)(F)F)cc4)c3)cc12 [Compound 139, 3-(isoxazol-4-yl)-N-(5-(1-(4-(trifluoromethyl)phenyl)-1H-pyrazol-4-yl)-1H-indol-3-yl)propanamide] | 0.2 to 1
COC1(CC(=O)Nc2c[nH]c3ccc(-c4cnn(-c5ccc(C(F)(F)F)cc5)c4)cc23)CCC1 [Compound 163, 2-(1-methoxycyclobutyl)-N-(5-(1-(4-(trifluoromethyl)phenyl)-1H-pyrazol-4-yl)-1H-indol-3-yl)acetamide] | 0.2 to 1

Second part, the molecule after the results:

EC50 [µM] | SMILES
5 to 100 | CC(C)(Oc1ccccc1)C(=O)Nc1c[nH]c2cc(F)c(F)cc12 [Compound 102, N-(5,6-difluoro-1H-indol-3-yl)-2-methyl-2-phenoxypropanamide]
5 to 100 | Cc1ccc(OC(C)(C)C(=O)Nc2c[nH]c3cc(F)c(F)cc23)nc1 [Compound 105, N-(5,6-difluoro-1H-indol-3-yl)-2-methyl-2-((5-methylpyridin-2-yl)oxy)propanamide]
0.2 to 1 | CCOc1cccc(CCC(=O)Nc2c[nH]c3cc(F)c(F)cc23)c1 [Compound 106, N-(5,6-difluoro-1H-indol-3-yl)-3-(3-ethoxyphenyl)propanamide]
1 to 5 | O=C(CCc1ccc(C(F)(F)F)nc1)Nc1c[nH]c2cc(F)c(F)cc12 [Compound 117, N-(5,6-difluoro-1H-indol-3-yl)-3-(6-(trifluoromethyl)pyridin-3-yl)propanamide]
5 to 100 | COc1ccc(CCC(=O)Nc2c[nH]c3cc(F)c(F)cc23)cn1 [Compound 116, N-(5,6-difluoro-1H-indol-3-yl)-3-(6-methoxypyridin-3-yl)propanamide]
0.2 to 1 | COc1ccc(/C=C(\C)C(=O)Nc2c[nH]c3cc(F)c(F)cc23)cc1 [Compound 110, (E)-N-(5,6-difluoro-1H-indol-3-yl)-3-(4-methoxyphenyl)-2-methylacrylamide]
5 to 100 | COc1cccc(N2CC(C(=O)Nc3c[nH]c4cc(F)c(F)cc34)CC2=O)c1 (stereo not shown) [Compound 112, N-(5,6-difluoro-1H-indol-3-yl)-1-(3-methoxyphenyl)-5-oxopyrrolidine-3-carboxamide]
5 to 100 | COc1ccc(CC(=O)Nc2c[nH]c3cc(F)c(F)cc23)cc1C(F)(F)F [Compound 132, N-(5,6-difluoro-1H-indol-3-yl)-2-(4-methoxy-3-(trifluoromethyl)phenyl)acetamide]
0.2 to 1 | N#Cc1cccc(/C=C/C(=O)Nc2c[nH]c3cc(F)c(F)cc23)c1 [Compound 135, (E)-3-(3-cyanophenyl)-N-(5,6-difluoro-1H-indol-3-yl)acrylamide]
1 to 5 | O=C(Cc1ccc(OC(F)(F)F)cc1)Nc1c[nH]c2cc(F)c(F)cc12 [Compound 129, N-(5,6-difluoro-1H-indol-3-yl)-2-(4-(trifluoromethoxy)phenyl)acetamide]
0.2 to 1 | CCOc1cccc(/C=C/C(=O)Nc2c[nH]c3cc(F)c(F)cc23)c1 [Compound 128, (E)-N-(5,6-difluoro-1H-indol-3-yl)-3-(3-ethoxyphenyl)acrylamide]
5 to 100 | O=C(Cc1cccc(OC(F)F)c1)Nc1c[nH]c2cc(F)c(F)cc12 [Compound 127, N-(5,6-difluoro-1H-indol-3-yl)-2-(3-(difluoromethoxy)phenyl)acetamide]
5 to 100 | COc1cccc(CCC(=O)Nc2c[nH]c3cc(F)c(F)cc23)n1 [Compound 108, N-(5,6-difluoro-1H-indol-3-yl)-3-(6-methoxypyridin-2-yl)propanamide]
5 to 100 | CC(C)(Oc1ccc(F)cc1)C(=O)Nc1c[nH]c2cc(F)c(F)cc12 [Compound 134, N-(5,6-difluoro-1H-indol-3-yl)-2-(4-fluorophenoxy)-2-methylpropanamide]
1 to 5 | N#Cc1cc(CC(=O)Nc2c[nH]c3cc(F)c(F)cc23)ccn1 [Compound 107, 2-(2-cyanopyridin-4-yl)-N-(5,6-difluoro-1H-indol-3-yl)acetamide]
